Broadly, the Solubility is the dissolved amount per volume that the medium holds. A high value points to much dissolved substance. For orientation: chromatographic logD means lipophilicity estimated from chromatographic retention. High values mean higher lipophilicity, low ones lower lipophilicity.

Consider ten compounds from US20240116985A1, “STAPLED PEPTIDES AND METHODS THEREOF” (priority 2020, published 2024).

pIC50: −log10 of the molar value. In brackets after ≈: the same amount, converted by molar mass. Like-named read-outs stand apart in the source and are kept apart here.

Data set [1] concerns the target T1, full-length beta-Catenin (Uniprot ID P35222) (Homo sapiens, UniProt P35222).
T1 construct: 10 nM full-length beta-Catenin (Uniprot ID P35222)
T1 sequence (P35222 1-781): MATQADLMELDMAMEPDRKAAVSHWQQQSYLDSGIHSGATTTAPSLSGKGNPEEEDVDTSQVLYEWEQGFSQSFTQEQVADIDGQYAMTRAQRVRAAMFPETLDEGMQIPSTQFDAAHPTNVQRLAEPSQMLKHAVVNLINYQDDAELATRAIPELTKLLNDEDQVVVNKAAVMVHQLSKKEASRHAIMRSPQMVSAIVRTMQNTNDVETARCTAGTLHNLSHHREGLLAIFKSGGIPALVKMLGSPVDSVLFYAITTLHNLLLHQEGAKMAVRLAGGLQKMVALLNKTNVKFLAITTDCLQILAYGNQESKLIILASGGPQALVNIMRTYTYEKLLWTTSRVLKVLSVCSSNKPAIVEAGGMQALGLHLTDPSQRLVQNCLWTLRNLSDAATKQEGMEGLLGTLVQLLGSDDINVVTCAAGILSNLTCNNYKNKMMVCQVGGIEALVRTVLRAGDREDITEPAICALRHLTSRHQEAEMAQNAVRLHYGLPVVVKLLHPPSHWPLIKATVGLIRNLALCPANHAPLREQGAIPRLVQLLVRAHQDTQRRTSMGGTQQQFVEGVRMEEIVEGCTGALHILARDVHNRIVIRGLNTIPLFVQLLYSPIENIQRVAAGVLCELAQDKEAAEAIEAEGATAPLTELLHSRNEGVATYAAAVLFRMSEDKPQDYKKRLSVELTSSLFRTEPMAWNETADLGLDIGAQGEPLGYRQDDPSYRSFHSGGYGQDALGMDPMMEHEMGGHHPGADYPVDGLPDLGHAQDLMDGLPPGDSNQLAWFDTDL
Briefly: Fluorescence polarization IC50 (beta-catenin / 5FAM-TCF4 10-53 competition). Format: binding.

A short description of another data set: Solubility in PBS. Format: physicochemical. A digest of the protocol:
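Solubility is derived from HPLC peak areas: the ratio of the PBS supernatant peak to a 50 μM DMSO peptide peak, times 50 uM.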

Another data set in a line: CHI Log D procedure. It counts as physicochemical. To be noted: for CHI Log D: pH 7.4; for chromatographic logD: pH 7.4, CHI Log D.
Where [2] appears, read: fluorescence polarization, read-out: beta-Catenin FP IC50.

`CC[C@H](C)[C@@H]1NC(=O)[C@H](CC(=O)O)NC(=O)[C@]2(CC=CCCCC3(CCCC=CCCCCCC[C@@](C)(C(=O)N[C@@H](Cc4ccsc4)C(=O)N[C@@H](Cc4csc5ccccc45)C(=O)N[C@@H](Cc4c[nH]cn4)C(N)=O)NC(=O)[C@H](CC(N)=O)NC(=O)[C@H](Cc4ccccc4)NC(=O)[C@H](C)NC(=O)[C@H](C)NC(=O)[C@H](CC(=O)O)NC(=O)[C@H](CC(=O)O)NC3=O)NC1=O)CCCN2C(C)=O` (stereo partly drawn) [I-555, Ac-PL3-Asp-Ile-B5-Asp-Asp-Ala-Ala-Phe-Asn-S8-3Thi-BztA-His-NH2]: the pIC50 in data set [1] (setting [2]) and in data set [1] (read-out: FP EC50) was 7.39 throughout. Also, the “Solubility” value in “Solubility in PBS” was 41 µM (≈ 76.7 µg/mL). Besides, the “CHI Log D” value in the data set “CHI Log D procedure” stood at 2.374.

Take `CC[C@H](C)[C@@H]1NC(=O)[C@H](CC(=O)O)NC(=O)[C@]2(CC=CCCCC3(CCCC=CCCCCCC[C@@](C)(C(=O)N[C@@H](Cc4ccsc4)C(=O)N[C@@H](Cc4csc5ccccc45)C(=O)N[C@@H](Cc4c[nH]cn4)C(N)=O)NC(=O)[C@H](CC(N)=O)NC(=O)[C@H](Cc4ccccc4)NC(=O)[C@H](C)NC(=O)[C@H](C)NC(=O)[C@H](CC(=O)O)NC(=O)[C@H](CC(=O)O)NC3=O)NC1=O)CCCN2C(C)=O` (stereo partly drawn) [I-556, Ac-PL3-Asp-Ile-B5-Asp-Asp-Ala-Ala-Phe-Asn-S8-3Thi-BztA-His-NH2]: the pIC50 in data set [1] (setting [2]) and in data set [1] (read-out: FP EC50) was 7.70 each time. Also, in “Solubility in PBS”, the “Solubility” value amounted to 39 µM (≈ 72.9 µg/mL). Further, in the data set “CHI Log D procedure”, the “CHI Log D” value is on record as 2.435.

For the compound `CC(=O)N1CCC[C@]12CC=CCCCC1(CCCC=CCCCCCC[C@@](C)(C(=O)N[C@@H](Cc3ccccc3)C(=O)N[C@@H](Cc3csc4ccccc34)C(=O)N[C@@H](Cc3c[nH]cn3)C(N)=O)NC(=O)[C@H](CCC(N)=O)NC(=O)[C@H](Cc3ccccc3)NC(=O)[C@H](C)NC(=O)[C@H](C)NC(=O)[C@H](CC(=O)O)NC(=O)[C@H](CC(=O)O)NC1=O)NC(=O)[C@H](CC(C)C)NC(=O)[C@H](CC(=O)O)NC2=O` (stereo partly drawn) [I-561, Ac-PL3-Asp-Leu-B5-Asp-Asp-Ala-Ala-Phe-Gln-S8-Phe-BztA-His-NH2], the pIC50 in data set [1] (setting [2]) and in data set [1] (read-out: FP EC50) was 7.47 throughout. In addition, the “Solubility” value in the data set “Solubility in PBS” is 14 µM (≈ 26.3 µg/mL). Also, the “CHI Log D” value in the data set “CHI Log D procedure” was determined as 2.437.

Consider `CC[C@@H]1NC(=O)[C@H](CC(=O)O)NC(=O)[C@]2(CC=CCCCC3(CCCC=CCCCCCC[C@@](C)(C(=O)N[C@@H](Cc4ccccc4)C(=O)N[C@@H](Cc4csc5ccccc45)C(=O)N[C@@H](CCC(N)=O)C(N)=O)NC(=O)[C@H](CCC(N)=O)NC(=O)[C@H](Cc4ccccc4)NC(=O)[C@H](C)NC(=O)[C@H](C)NC(=O)[C@H](CCC(=O)O)NC(=O)[C@H](CC(=O)O)NC3=O)NC1=O)CCCN2C(C)=O` (stereo partly drawn) [I-569, Ac-PL3-Asp-Abu-B5-Asp-Glu-Ala-Ala-Phe-Gln-S8-Phe-BztA-Gln-NH2], for which the pIC50 in data set [1] (setting [2]) and in data set [1] (read-out: FP EC50) was 7.38 in each case. For the same compound, the “Solubility” value in “Solubility in PBS” came to 49 µM (≈ 90.9 µg/mL). The “CHI Log D” value in the data set “CHI Log D procedure” is recorded as 2.169.

Take `CC[C@@H]1NC(=O)[C@H](CC(=O)O)NC(=O)[C@]2(CC=CCCCC3(CCCC=CCCCCCC[C@@](C)(C(=O)N[C@@H](Cc4ccccc4)C(=O)N[C@@H](Cc4csc5ccccc45)C(=O)N[C@@H](Cc4c[nH]cn4)C(N)=O)NC(=O)[C@H](CC(N)=O)NC(=O)[C@H](Cc4ccccc4)NC(=O)[C@H](C)NC(=O)[C@H](C)NC(=O)[C@H](CC(=O)O)NC(=O)[C@H](CC(=O)O)NC3=O)NC1=O)CCCN2C(C)=O` (stereo partly drawn) [I-575, Ac-PL3-Asp-Abu-B5-Asp-Asp-Ala-Ala-Phe-Asn-S8-Phe-BztA-His-NH2]: the pIC50 in data set [1] (setting [2]) and in data set [1] (read-out: FP EC50) was 7.68 in each case. In addition, the “Solubility” value in “Solubility in PBS” was 46 µM (≈ 84.5 µg/mL). Moreover, the “CHI Log D” value in “CHI Log D procedure” was found to be 2.21.

As for `CC[C@H](C)[C@@H]1NC(=O)[C@H](CC(=O)O)NC(=O)[C@]2(CC=CCCCC3(CCCC=CCCCCCC[C@@](C)(C(=O)N[C@@H](Cc4ccccc4)C(=O)N[C@@H](Cc4csc5ccccc45)C(=O)N[C@@H](Cc4c[nH]cn4)C(N)=O)NC(=O)[C@H](CCC(N)=O)NC(=O)[C@H](Cc4ccccc4)NC(=O)[C@H](C)NC(=O)[C@H](C)NC(=O)[C@H](CC(=O)O)NC(=O)[C@H](CC(=O)O)NC3=O)NC1=O)CCCN2C(C)=O` (stereo partly drawn) [I-580, Ac-PL3-Asp-Ile-B5-Asp-Asp-Ala-Ala-Phe-Gln-S8-Phe-BztA-His-NH2], the pIC50 in data set [1] (setting [2]) and in data set [1] (read-out: FP EC50) was 6.94 throughout. The “Solubility” value in “Solubility in PBS” is 24 µM (≈ 45.1 µg/mL). In addition, the “CHI Log D” value in the data set “CHI Log D procedure” is given as 2.436.

In the case of `CC(=O)N1CCC[C@]12CC=CCCCC1(CCCC=CCCCCCC[C@@](C)(C(=O)N[C@@H](Cc3ccccc3)C(=O)N[C@@H](Cc3csc4ccccc34)C(=O)N[C@@H](Cc3c[nH]cn3)C(N)=O)NC(=O)[C@H](CC(N)=O)NC(=O)[C@H](Cc3ccccc3)NC(=O)[C@H](C)NC(=O)[C@H](C)NC(=O)[C@H](CC(=O)O)NC(=O)[C@H](CC(=O)O)NC1=O)NC(=O)[C@H](CCC(C)C)NC(=O)[C@H](CC(=O)O)NC2=O` (stereo partly drawn) [I-584, Ac-PL3-Asp-hLeu-B5-Asp-Asp-Ala-Ala-Phe-Asn-S8-Phe-BztA-His-NH2], the pIC50 in data set [1] (setting [2]) and in data set [1] (read-out: FP EC50) was 7.48 each time. Also, the “Solubility” value in the data set “Solubility in PBS” was found to be 21 µM (≈ 39.4 µg/mL). Also, the “CHI Log D” value in “CHI Log D procedure” turned out to be 2.635.

For `CC[C@H](C)[C@@H]1NC(=O)[C@H](CC(=O)O)NC(=O)[C@]2(CC=CCCCC3(CCCC=CCCCCCC[C@@](C)(C(=O)N[C@@H](Cc4ccccc4)C(=O)N[C@@H](Cc4csc5ccccc45)C(=O)N[C@@H](CCC(N)=O)C(N)=O)NC(=O)[C@H](CCC(N)=O)NC(=O)[C@H](Cc4ccccc4)NC(=O)[C@H](C)NC(=O)[C@H](C)NC(=O)[C@H](CCC(=O)O)NC(=O)[C@H](CC(=O)O)NC3=O)NC1=O)CCCN2C(=O)c1cccnc1` (stereo partly drawn) [I-598, Nic-PL3-Asp-Ile-B5-Asp-Glu-Ala-Ala-Phe-Gln-S8-Phe-BztA-Gln-NH2], the pIC50 in data set [1] (setting [2]) was 6.07. This compound also had a Solubility in the data set “Solubility in PBS” (Solubility (uM)) of 49 µM (≈ 95.4 µg/mL). Further, the chromatographic logD in “CHI Log D procedure” came to 2.24.

`CC[C@H](C)[C@@H]1NC(=O)[C@H](CC(=O)O)NC(=O)[C@]2(CC=CCCCC3(CCCC=CCCCCCC[C@@](C)(C(=O)N[C@@H](Cc4ccccc4)C(=O)N[C@@H](Cc4csc5ccccc45)C(=O)N[C@@H](CCC(N)=O)C(N)=O)NC(=O)[C@H](CCC(N)=O)NC(=O)[C@H](Cc4ccccc4)NC(=O)[C@H](C)NC(=O)[C@H](C)NC(=O)[C@H](CCC(=O)O)NC(=O)[C@H](CC(=O)O)NC3=O)NC1=O)CCCN2C(=O)c1ccccn1` (stereo partly drawn) [I-599, Pic-PL3-Asp-Ile-B5-Asp-Glu-Ala-Ala-Phe-Gln-S8-Phe-BztA-Gln-NH2]: the pIC50 in data set [1] (setting [2]) is 6.86. The compound also displayed a Solubility in “Solubility in PBS” (Solubility (uM)) of 45 µM (≈ 87.6 µg/mL). In the data set “CHI Log D procedure”, this compound returned a chromatographic logD of 2.42.

On to `CC[C@H](C)[C@@H]1NC(=O)[C@H](CC(=O)O)NC(=O)[C@]2(CC=CCCCC3(CCCC=CCCCCCC[C@@](C)(C(=O)N[C@@H](Cc4ccccc4)C(=O)N[C@@H](Cc4csc5ccccc45)C(=O)N[C@@H](CCC(N)=O)C(N)=O)NC(=O)[C@H](CCC(N)=O)NC(=O)[C@H](Cc4ccccc4)NC(=O)[C@H](C)NC(=O)[C@H](C)NC(=O)[C@H](CCC(=O)O)NC(=O)[C@H](CC(=O)O)NC3=O)NC1=O)CCCN2C(=O)Cc1ccccc1` (stereo partly drawn) [I-600, Bnc-PL3-Asp-Ile-B5-Asp-Glu-Ala-Ala-Phe-Gln-S8-Phe-BztA-Gln-NH2], for which the pIC50 was 6.10 in data set [1] (read-out: FP EC50) and 6.10 in data set [1] (read-out: beta-Catenin FP IC50, fluorescence polarization). In “Solubility in PBS”, the “Solubility” value was found to be 47 µM (≈ 92.1 µg/mL). In “CHI Log D procedure”, the “CHI Log D” value was determined as 2.694.
